Literature values in US20080108586A1, “COMBINATION THERAPY FOR HUMAN IMMUNODEFICIENCY VIRUS INFECTION” (Incyte Corporation, priority 2006, published 2008).

Tests used:
[1] = biological target: human CCR5 (Homo sapiens, UniProt P51681)
[2] = biological target: rhesus macaque CCR5 (Macaca mulatta, UniProt P61813)

Sequence of human CCR5 (P51681 whole entry): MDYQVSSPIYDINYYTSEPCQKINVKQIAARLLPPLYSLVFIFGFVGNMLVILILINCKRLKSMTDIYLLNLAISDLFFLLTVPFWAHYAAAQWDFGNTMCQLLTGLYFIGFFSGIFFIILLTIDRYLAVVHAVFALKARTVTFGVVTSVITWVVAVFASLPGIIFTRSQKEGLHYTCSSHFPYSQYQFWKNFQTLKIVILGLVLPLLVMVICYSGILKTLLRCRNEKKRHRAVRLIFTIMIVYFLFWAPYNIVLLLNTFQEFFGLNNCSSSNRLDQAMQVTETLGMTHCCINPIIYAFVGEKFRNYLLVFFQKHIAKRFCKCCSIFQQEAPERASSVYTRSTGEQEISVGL

Cc1ncnc(C)c1C(=O)N1CCC(C)(N2CCN([C@@H](C)c3ccc(C(F)(F)F)cc3)[C@@H](C)C2)CC1 [AD101, (4,6-dimethylpyrimidin-5-yl)(4-methyl-4-((S)-3-methyl-4-((S)-1-(4-(trifluoromethyl)-phenyl)ethyl)piperazin-1-yl)piperidin-1-yl)methanone]
inhibition of HIV-1 entry via human CCR5 [1]: inhibits
inhibition of HIV-1 entry via rhesus macaque CCR5 [2]: inhibits
